Measurements published in patent US9309242B2, “Substituted pyrido[2,3-b]pyrazines as FGFR kinase inhibitors” (priority 2011, dated 2016).

Experiments:
FGFR3 (h) = FGFR3 (h) (Homo sapiens, UniProt P22607); assay: FGFR3 (enzymatic assay), TR-FRET; assay type: biochemical; conditions: read-out: FGFR 3 pIC50 (converted)
From the text: Time-Resolved Fluorescence Resonance Energy Transfer (TR-FRET) signal (ex340 nm.

FGFR2 (h) = FGFR2 (h) (Homo sapiens, UniProt P21802); assay: FGFR2 (enzymatic assay), TR-FRET; assay type: biochemical; conditions: enzymatic assay; read-out: FGFR 2 pIC50 (converted)
Sequence of FGFR2 (h) (P21802 22-821): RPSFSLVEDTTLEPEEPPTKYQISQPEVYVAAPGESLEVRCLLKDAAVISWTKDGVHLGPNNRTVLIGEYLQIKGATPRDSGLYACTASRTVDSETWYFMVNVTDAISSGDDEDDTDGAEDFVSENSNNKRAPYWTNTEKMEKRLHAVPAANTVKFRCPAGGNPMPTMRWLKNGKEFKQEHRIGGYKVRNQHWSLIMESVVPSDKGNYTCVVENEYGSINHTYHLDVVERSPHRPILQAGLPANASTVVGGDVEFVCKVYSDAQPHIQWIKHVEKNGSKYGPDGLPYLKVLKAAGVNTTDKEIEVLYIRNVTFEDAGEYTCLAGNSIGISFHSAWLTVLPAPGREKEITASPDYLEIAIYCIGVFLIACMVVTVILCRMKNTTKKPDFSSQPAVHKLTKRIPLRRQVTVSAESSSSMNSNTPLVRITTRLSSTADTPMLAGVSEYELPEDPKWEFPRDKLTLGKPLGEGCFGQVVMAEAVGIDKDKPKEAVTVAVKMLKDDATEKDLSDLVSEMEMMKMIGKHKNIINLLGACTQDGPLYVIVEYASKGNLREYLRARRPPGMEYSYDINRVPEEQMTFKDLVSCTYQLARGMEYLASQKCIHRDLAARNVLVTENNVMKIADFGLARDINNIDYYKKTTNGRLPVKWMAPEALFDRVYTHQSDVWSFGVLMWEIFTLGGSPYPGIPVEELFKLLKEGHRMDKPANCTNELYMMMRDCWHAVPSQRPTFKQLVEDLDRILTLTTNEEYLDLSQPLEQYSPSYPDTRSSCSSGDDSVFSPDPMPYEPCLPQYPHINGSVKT
Method in brief: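 Phosphorylation of 500 nM Btn-Flt3 by human FGFR2 (150 ng/ml) is measured at 0.4 μM ATP. The buffer is 50 mM HEPES pH 7.5 containing 6 mM MnCl2, 1 mM DTT, 0.1 mM Na3VO4 and 0.01% Triton-X-100, and compound is tested at 1% DMSO final.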

[1] = tested on: Ba/F3-KDR-transfected cells; assay: Ba/F3-KDR (plus IL3) cellular proliferation assay, counterscreen with 10 ng/ml murine IL3; assay type: cell-based; conditions: plus IL3 (10 ng/ml murine IL3, counterscreen); read-out: BAF3-KDR (PLUS IL3) pIC50 (converted)
Method in brief: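 Cells grown with test compound at 37° C and 5% CO2 for 24 hours were given a resazurin/ferricyanide/ferrocyanide reagent for 4 hours before fluorescence (540/590 nm) was recorded.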

Sequence of FGFR3 (h) (P22607 23-806): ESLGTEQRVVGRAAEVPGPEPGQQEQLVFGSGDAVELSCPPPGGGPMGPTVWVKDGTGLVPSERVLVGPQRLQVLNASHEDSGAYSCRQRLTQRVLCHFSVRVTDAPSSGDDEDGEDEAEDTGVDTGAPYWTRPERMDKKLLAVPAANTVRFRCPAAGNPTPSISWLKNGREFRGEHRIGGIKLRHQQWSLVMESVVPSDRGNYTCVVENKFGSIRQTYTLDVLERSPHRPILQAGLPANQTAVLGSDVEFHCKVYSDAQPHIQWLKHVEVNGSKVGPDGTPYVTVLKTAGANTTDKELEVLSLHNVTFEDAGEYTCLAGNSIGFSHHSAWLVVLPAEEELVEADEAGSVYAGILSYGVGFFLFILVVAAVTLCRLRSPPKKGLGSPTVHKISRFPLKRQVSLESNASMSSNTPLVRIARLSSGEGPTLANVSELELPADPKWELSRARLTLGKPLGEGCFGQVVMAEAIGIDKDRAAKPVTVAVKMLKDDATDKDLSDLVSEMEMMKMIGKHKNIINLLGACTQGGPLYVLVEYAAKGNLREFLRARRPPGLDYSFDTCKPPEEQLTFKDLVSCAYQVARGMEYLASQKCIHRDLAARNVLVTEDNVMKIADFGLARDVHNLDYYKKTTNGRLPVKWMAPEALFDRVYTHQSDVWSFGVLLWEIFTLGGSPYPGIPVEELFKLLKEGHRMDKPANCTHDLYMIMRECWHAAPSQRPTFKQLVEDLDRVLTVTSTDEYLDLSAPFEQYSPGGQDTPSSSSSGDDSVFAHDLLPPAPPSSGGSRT

| SMILES | IC50 (FGFR3 (h)) [nM] | IC50 (FGFR2 (h)) [nM] | IC50 [1] [nM] |
| --- | --- | --- | --- |
| COc1cc(/N=c2\ccc3ncc(-c4cnn(C)c4)nc3n2Cc2cn[nH]c2)c(F)c(OC)c1 [Compound 155] | 0.407 | 1.2 | > 10000 |
| COc1cc(OC)c(F)c(N(Cc2ncc[nH]2)c2ccc3ncc(N4CCOCC4)nc3n2)c1F [Compound 215] | ~1.26 | 2.09 | > 10000 |
| COc1cc(OC)c(F)c(N(Cc2c(C)noc2C)c2ccc3ncc(-c4cnn(C)c4)nc3n2)c1 [Compound 178] | 3.55 | 7.41 | > 10000 |
| COc1cc(OC)c(F)c(N(CC2COC2)c2ccc3ncc(-c4cnn(C)c4)nc3n2)c1 [Compound 144] | 1.74 | 2.82 | > 10000 |
| COc1cc(OC)c(F)c(N(CC(=O)c2cnn(C)c2)c2ccc3ncc(-c4cnn(C)c4)nc3n2)c1 [Compound 225] | 7.76 | ~7.08 | > 10000 |
| COc1cc(OC)c(F)c(N(Cc2ncc[nH]2)c2ccc3ncc(-c4cnn(C(CO)CCl)c4)nc3n2)c1 (stereo not drawn) [Compound 209] | 1.32 | 2.4 | > 10000 |
| COc1cc(OC)cc(N(Cc2nn[nH]n2)c2ccc3ncc(-c4cnn(C)c4)nc3n2)c1 [Compound 197] | 14.5 | 11.2 | > 10000 |
| COc1cc(/N=c2\ccc3ncc(-c4cnn(C)c4)nc3n2CC2CCCOC2)cc(OC)c1 (stereo not drawn) [Compound 165] | 1.12 | 2.4 | > 10000 |
| COc1cc(/N=c2\ccc3ncc(-c4cnn(C)c4)nc3n2CCN)c(F)c(OC)c1 [Compound 167] | 2.09 | 2.19 | > 10000 |
| COc1cc(OC)c(F)c(N(Cc2nc(Br)c[nH]2)c2ccc3ncc(-c4cnn(C)c4)nc3n2)c1 [Compound 238] | 1.17 | 2.14 | > 10000 |
| COc1cc(OC)c(F)c(N(CC2CCOC2)c2ccc3ncc(-c4cnn(C)c4)nc3n2)c1 (single isomer, unassigned) [Compound 170] | 2.19 | 2.14 | > 10000 |
| COC(=O)CN(c1ccc2ncc(-c3cnn(C)c3)nc2n1)c1cc(OC)cc(OC)c1F [Compound 214] | 2.4 | 2.57 | > 10000 |
| COc1cc(OC)c(F)c(N(Cc2cnn(C)c2)c2ccc3ncc(-c4cnn(C)c4)nc3n2)c1 [Compound 195] | 0.871 | 2.04 | > 10000 |
| COc1cc(OC)c(F)c(N(CCN)c2ccc3ncc(-c4cnn(C)c4)nc3n2)c1 [Compound 168] | 3.16 | 2.04 | > 10000 |
| COc1cc(OC)c(F)c(N(CCN2CCOCC2)c2ccc3ncc(-c4cnn(C)c4)nc3n2)c1 [Compound 149] | 2.63 | 3.09 | > 10000 |
| COc1cc(/N=c2\ccc3ncc(-c4cnn(C)c4)nc3n2CC2CCC(=O)N2)cc(OC)c1 (stereo not drawn) [Compound 248] | 1.82 | 3.63 | > 10000 |
| COc1cc(OC)cc(N(Cc2nncn2CCO)c2ccc3ncc(-c4cnn(C)c4)nc3n2)c1 [Compound 204] | 15.1 | 11 | > 10000 |
| COc1cc(OC)c(F)c(N(CCN(C2COC2)C2COC2)c2ccc3ncc(-c4cnn(C)c4)nc3n2)c1F (single isomer, unassigned) [Compound 163] | 2.63 | 1.91 | > 10000 |
| COc1cc(/N=c2\ccc3ncc(-c4cnn(C)c4)nc3n2Cc2cc(C)on2)c(F)c(OC)c1 [Compound 181] | 1.55 | 2.19 | > 10000 |
| COc1cc(OC)cc(N(Cc2ncc[nH]2)c2ccc3ncc(-c4ccncc4)nc3n2)c1 [Compound 202] | 1.62 | 1.74 | > 10000 |
| COc1cc(OC)c(F)c(N(CCN(C2COC2)C2COC2)c2ccc3ncc(-c4cnn(C)c4)nc3n2)c1 [Compound 222] | 3.89 | 5.25 | > 10000 |
| COc1cc(O)c(F)c(N(Cc2ncc[nH]2)c2ccc3ncc(-c4cnn(C)c4)nc3n2)c1 [Compound 96] | 1.07 | 1.58 | > 10000 |
| COc1cc(OC)c(F)c(N(Cc2ncc[nH]2)c2ccc3ncc(-c4ccccc4)nc3n2)c1 [Compound 200] | 1.45 | 1.7 | > 10000 |
| COc1cc(OC)c(F)c(N(Cc2n[nH]c(=O)o2)c2ccc3ncc(-c4cnn(C)c4)nc3n2)c1 [Compound 284] | 1.05 | 2.14 | > 10000 |
| COc1cc(OC)cc(N(Cc2ncc[nH]2)c2ccc3ncc(-c4ccn(C)c4)nc3n2)c1 [Compound 198] | 0.646 | 1.07 | > 10000 |
